SMILES strings stand for the structures. Where two headings read alike, the source gives them in different places.

The target of one test is ER in T47D cells (Homo sapiens (Human), UniProt P03372). Put plainly: In-cell Western (ICW) ER degradation assay in T47D cells. Type of test: cell-based. Particulars: for DC50: ER degradation.
The target of the next test is CRBN/DDB1 (Homo sapiens (Human), UniProt Q96SW2). Type of test: binding. The following applies: His tagged CRBN+DDB1, Cy5-labeled Thalidomide probe, one hour; read-out: CRBN HTRF IC50. How it is done:
The binding potency was determined using HTRF assay technology (Perkin Elmer). Compounds were serially diluted in DMSO and […] volume was transferred to white 384-well plate.
Background: TR-FRET usually uses a lanthanide donor and a delayed reading to cut background.

In another test the target is ER in MCF-7 cells (Homo sapiens (Human), UniProt P03372). Put plainly: In-cell Western (ICW) ER degradation assay in MCF-7 cells. Particulars: for DC50: MCF-7, ER degradation, read-out: MCF7 DC50. Type of test: cell-based.
A further test has as its target ERα_LBD (GST) (Homo sapiens (Human), UniProt P03372). The test is described as follows: IC50 measurements for binding to ERα_LBD (GST), LanthaScreen TR-FRET competitive binding. The following applies: ERα_LBD (GST) 4 nM, Fluormone ES2 Green tracer, 60 min; read-out: ERα HTRF IC50. The method, then: In vitro Assay: IC50 Measurements for binding to ERα_LBD (GST) • Final assay conditions: • 1. ERα_LBD (GST) protein: 4 nM • 2. Tb Anti-GST: 2 nM • 3. Fluormone ES2 Green tracer: 3 nM • 4. Incubation time: 60 min • 5. DMSO: 1% • 6. Assay buffer: Adding 1M DTT to Nuclear receptor Buffer K for final 5 mM DTT. • 7. ZPE: 1% DMSO • 8. HPE: 1 μM ARV_471 (positive control) • 9. LanthaScreen® TR-FRET ERα Competitive Binding Assay (ThermoFisher, #A^15887) • 100× Compound preparation
1) Cherry pick 2 μL 10 mM compound stock to column 1 of a 384 intermediate plate. • 2) Add 18 μL DMSO to column 1 to dilute compound to 1 mM. • 3) Transfer 10 μL 1 mM compound to column 1 of a LDV plate. • 2) Add 6 μl DMSO to column 2-10 of the LDV plate. • 3) Compounds undergo 3-fold serial dilution (3 μL+6 μL) in DMSO. • 4) Transfer 120 nL compound solution to assay plate. ZPE: 120 nL 100% DMSO • Procedure:
Complete nuclear receptor buffer K was prepared by adding 1 M DTT to nuclear receptor buffer K for a final concentration of 5 mM DTT. Complete nuclear receptor buffer K must be prepared fresh daily, 2X protein solution was prepared using complete nuclear receptor buffer K containing 8 nM ERα_LBD (GST) and 4 nM Tb Anti-GST. Then, 2X Fluormone ES2 Green tracer (6 nM) was prepared using complete nuclear receptor buffer K. Add 6 μL 2X Fluormone ES2 green tracer into a compound plate (PerkinElmer 6008289) by dragonfly with one-tips-addition. Subsequently, 6 μL 2× protein solution was added into the plate. The 384-well plate was mixed on a plate shaker and incubated at room temperature protected from light for 60 min. The plate was scaled with a cover to minimize evaporation. The plate was read at wavelengths of 520 nm and 495 nm. The TR-FRET ratio was calculated by dividing the emission signal at 520 nm by the emission signal at 495 nm. A binding curve was generated by plotting the emission ratio vs, the log [ligand]. To determine the IC50 value, fit the data using XL-fit for a sigmoidal dose-response.

[1] abbreviates: maximal ER degradation, 16 hrs treatment, read-out: T47D Dmax.
Where [2] appears, read: MCF7, MCF-7, maximal ER degradation, 16 hrs treatment, read-out: MCF7 Dmax.
[3] abbreviates: read-out: T47D Dmax, T47D, maximal ER degradation, 16 hrs treatment.
Where [4] appears, read: MCF7, read-out: MCF7 Dmax, MCF-7, maximal ER degradation, 16 hrs treatment.

Chain of CRBN/DDB1 (Q96SW2 whole entry, species assumed): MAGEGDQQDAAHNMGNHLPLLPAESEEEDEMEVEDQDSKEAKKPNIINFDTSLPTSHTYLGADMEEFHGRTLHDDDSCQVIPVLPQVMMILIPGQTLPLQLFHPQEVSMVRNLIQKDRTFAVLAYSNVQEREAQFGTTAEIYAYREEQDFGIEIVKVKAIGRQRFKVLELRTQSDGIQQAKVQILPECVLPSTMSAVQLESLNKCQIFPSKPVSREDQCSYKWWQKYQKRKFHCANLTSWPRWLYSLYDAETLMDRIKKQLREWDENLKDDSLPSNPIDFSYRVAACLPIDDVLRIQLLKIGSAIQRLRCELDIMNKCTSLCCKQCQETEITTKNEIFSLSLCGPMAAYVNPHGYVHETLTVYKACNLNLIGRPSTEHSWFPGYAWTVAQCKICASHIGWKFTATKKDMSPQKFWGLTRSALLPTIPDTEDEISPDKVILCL
Chain of CRBN/DDB1 (Q16531 whole entry partner, species assumed): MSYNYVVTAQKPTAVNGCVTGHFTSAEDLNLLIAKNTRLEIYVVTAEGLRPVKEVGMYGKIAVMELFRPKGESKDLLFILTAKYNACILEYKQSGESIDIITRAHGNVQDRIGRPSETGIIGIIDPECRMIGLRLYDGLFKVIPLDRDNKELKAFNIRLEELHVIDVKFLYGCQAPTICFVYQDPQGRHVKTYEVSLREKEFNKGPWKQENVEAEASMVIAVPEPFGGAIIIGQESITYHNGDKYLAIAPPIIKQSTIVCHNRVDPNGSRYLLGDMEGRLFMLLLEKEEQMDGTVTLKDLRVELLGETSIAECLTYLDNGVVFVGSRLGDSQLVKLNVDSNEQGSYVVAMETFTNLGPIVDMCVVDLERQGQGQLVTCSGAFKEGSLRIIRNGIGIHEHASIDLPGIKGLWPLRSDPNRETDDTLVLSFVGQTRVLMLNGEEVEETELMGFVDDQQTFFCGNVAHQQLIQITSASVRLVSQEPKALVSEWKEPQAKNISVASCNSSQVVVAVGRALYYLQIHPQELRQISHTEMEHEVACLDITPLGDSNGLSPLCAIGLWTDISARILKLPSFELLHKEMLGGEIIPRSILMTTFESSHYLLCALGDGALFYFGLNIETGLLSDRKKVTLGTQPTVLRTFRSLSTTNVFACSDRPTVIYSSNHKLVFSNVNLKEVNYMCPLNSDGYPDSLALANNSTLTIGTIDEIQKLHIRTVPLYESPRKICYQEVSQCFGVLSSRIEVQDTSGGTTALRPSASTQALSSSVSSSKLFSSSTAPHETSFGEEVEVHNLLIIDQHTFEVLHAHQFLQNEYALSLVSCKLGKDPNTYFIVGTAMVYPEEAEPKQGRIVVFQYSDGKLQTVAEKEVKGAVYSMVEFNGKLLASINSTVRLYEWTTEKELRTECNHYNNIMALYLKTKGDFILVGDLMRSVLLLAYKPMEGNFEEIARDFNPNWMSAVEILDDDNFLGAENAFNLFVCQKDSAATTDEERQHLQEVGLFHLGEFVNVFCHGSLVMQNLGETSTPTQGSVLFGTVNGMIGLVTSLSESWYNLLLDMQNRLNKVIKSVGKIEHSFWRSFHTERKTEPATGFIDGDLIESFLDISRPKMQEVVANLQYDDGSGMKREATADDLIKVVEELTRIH
Chain of ER in MCF-7 cells (P03372 whole entry): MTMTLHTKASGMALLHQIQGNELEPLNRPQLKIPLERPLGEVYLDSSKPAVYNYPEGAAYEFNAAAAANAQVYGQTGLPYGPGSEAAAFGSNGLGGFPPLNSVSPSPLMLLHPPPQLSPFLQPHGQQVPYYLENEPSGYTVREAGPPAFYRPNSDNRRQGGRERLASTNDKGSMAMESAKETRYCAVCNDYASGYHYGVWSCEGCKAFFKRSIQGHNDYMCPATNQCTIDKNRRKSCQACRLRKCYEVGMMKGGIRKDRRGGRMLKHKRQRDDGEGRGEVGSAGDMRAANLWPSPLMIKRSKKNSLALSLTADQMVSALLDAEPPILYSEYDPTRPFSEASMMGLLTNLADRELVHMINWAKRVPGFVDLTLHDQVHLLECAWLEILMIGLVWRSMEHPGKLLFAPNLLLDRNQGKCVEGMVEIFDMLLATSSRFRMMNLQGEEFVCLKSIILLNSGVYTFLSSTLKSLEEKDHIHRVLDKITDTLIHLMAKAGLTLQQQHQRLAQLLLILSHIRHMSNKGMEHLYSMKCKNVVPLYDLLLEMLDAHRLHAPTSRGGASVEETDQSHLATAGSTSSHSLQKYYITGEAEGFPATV
Chain of ER in T47D cells (P03372 whole entry): as above
Chain of ERα_LBD (GST) (P03372 311-547): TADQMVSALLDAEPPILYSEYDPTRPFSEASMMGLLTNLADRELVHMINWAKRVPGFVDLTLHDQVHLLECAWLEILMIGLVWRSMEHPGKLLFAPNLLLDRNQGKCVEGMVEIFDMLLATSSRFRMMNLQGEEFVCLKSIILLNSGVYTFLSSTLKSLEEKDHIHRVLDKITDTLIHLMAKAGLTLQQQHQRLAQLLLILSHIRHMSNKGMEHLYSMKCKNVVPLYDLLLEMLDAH

Regarding `O=C1CC[C@H](NC(=O)c2ccc3c(n2)OC[C@H]2CN(CC4CCN(c5ccc([C@@H]6c7ccc(O)cc7CC[C@@H]6c6ccccc6)cc5)CC4)CCN32)C(=O)N1` (single isomer, unassigned) [Compound A6], the DC50 at ER in T47D cells (16 hrs treatment) and at ER in MCF-7 cells (16 hrs treatment) was < 1 nM each time. In addition, the Dmax on ER in T47D cells (setting [1]) and on ER in MCF-7 cells (setting [2]) was 50 to 75% in each case. Moreover, the values for the IC50 at CRBN/DDB1 and at ERα_LBD (GST) were 500 to 5000 nM and < 10 nM, respectively.
Take `O=C1CC[C@H](N2Cc3c(ccc4c3OCC43CCN(CC4CC5(CCN(c6ccc([C@@H]7c8ccc(O)cc8CC[C@@H]7c7ccccc7)cn6)CC5)C4)CC3)C2=O)C(=O)N1` [Compound A116, (S)-3-(1′-((7-(5-((1S,2S)-6-hydroxy-2-phenyl-1,2,3,4-tetra-hydronaphthalen-1-yl)pyridin-2-yl)-7-azaspiro[3.5]nonan-2-yl)methyl)-6-oxo-6,8-dihydro-2H,7H-spiro[furo[2,3-e]iso-indole-3,4′-piperidin]-7-yl)-piperidine-2,6-dione]: the DC50 on ER in T47D cells (16 hrs treatment) and at ER in MCF-7 cells (16 hrs treatment) was < 1 nM each time. The Dmax (as a rule, the greatest extent of degradation seen) at ER in T47D cells (setting [3]) is > 75%; at ER in MCF-7 cells (setting [4]), 50 to 75%. Also, the values for the IC50 on CRBN/DDB1 and on ERα_LBD (GST) were < 50 nM and < 10 nM, respectively.
As for `COc1cc(N2CCC3(CC2)CC(CN2CCN4c5ccc6c(c5OC[C@H]4C2)CN([C@H]2CCC(=O)NC2=O)C6=O)C3)ccc1[C@H]1c2ccc(O)cc2CC[C@H]1c1ccccc1` (single isomer, unassigned) [Compound A9], the DC50 on ER in T47D cells (16 hrs treatment) and on ER in MCF-7 cells (16 hrs treatment) was 1 to 10 nM each time. Further, the Dmax on ER in T47D cells (setting [1]) and at ER in MCF-7 cells (setting [2]) was 50 to 75% in each case. The IC50 (usually the concentration that gives 50% inhibition) at CRBN/DDB1 was < 50 nM; at ERα_LBD (GST) it was 10 to 100 nM.
For `COC1(CN2CCN3c4ccc5c(c4OC[C@H]3C2)CN([C@H]2CCC(=O)NC2=O)C5=O)CCN(c2ccc([C@@H]3c4ccc(O)cc4CC[C@@H]3c3ccccc3)cc2)CC1` [Compound A82, (S)-3-((R)-7-((1-(4-((1R,2S)-6-hydroxy-2-phenyl-1,2,3,4-tetrahydronaphthalen-1-yl)-phenyl)-4-methoxypiperidin-4-yl)methyl)-1-oxo-1,3,5,5a,6,7,8,9-octahydro-2H-pyrazino [1′,2′:4,5][1,4]oxazino[2,3-c]isoindol-2-yl)piperidine-2,6-dione], the IC50 at CRBN/DDB1 is 50 to 500 nM; on ERα_LBD (GST), < 10 nM. The Dmax on ER in MCF-7 cells (setting [2]) is > 75%. Besides, the DC50 (in general, the concentration giving 50% degradation) at ER in MCF-7 cells (16 hrs treatment) was < 1 nM.
Take `O=C1CC[C@H](N2Cc3c(ccc4c3OC[C@H]3CN(C[C@@H]5COC6(C5)CN(c5ccc([C@@H]7c8ccc(O)cc8CC[C@@H]7c7ccccc7)cc5)C6)CCN43)C2=O)C(=O)N1` (single isomer, unassigned) [Compound A69]: the DC50 on ER in T47D cells (16 hrs treatment) and at ER in MCF-7 cells (16 hrs treatment) was < 1 nM in each case. Besides, the Dmax on ER in T47D cells (setting [1]) was > 75%; at ER in MCF-7 cells (setting [2]), 50 to 75%. Also, the IC50 on CRBN/DDB1 was 50 to 500 nM; at ERα_LBD (GST), < 10 nM.
Regarding `COc1cc(N2CCC3(CC2)CC(CN2CCN4c5cc6c(cc5OC[C@@H]4C2)C(=O)N([C@H]2CCC(=O)NC2=O)C6)C3)ccc1[C@H]1c2ccc(O)cc2CC[C@H]1c1ccccc1` (single isomer, unassigned) [Compound A11], the results for the DC50 on ER in T47D cells (16 hrs treatment) and on ER in MCF-7 cells (16 hrs treatment) were 1 to 10 nM and 10 to 100 nM, respectively. For the same compound, the Dmax on ER in T47D cells (setting [1]) and at ER in MCF-7 cells (setting [2]) was 50 to 75% throughout. For the same compound, the IC50 on CRBN/DDB1 is 50 to 500 nM; at ERα_LBD (GST) it was 10 to 100 nM.
As to `O=C1CC[C@H](N2Cc3c(ccc4c3OC[C@H]3CN(CC5CC6(CCN(c7ccc([C@@H]8c9ccc(O)cc9CC[C@@H]8c8ccccc8)cn7)CC6)C5)CCN43)C2=O)C(=O)N1` (single isomer, unassigned) [Compound A112], the IC50 is 50 to 500 nM on CRBN/DDB1 and < 10 nM on ERα_LBD (GST). At ER in MCF-7 cells (setting [2]), the Dmax was > 75%. Moreover, the half-maximal degradation concentration (DC50) at ER in MCF-7 cells (16 hrs treatment) is < 1 nM.
As for `COc1cc(N2CCC3(CC2)CC(CN2CCC4(CC2)COc2c4ccc4c2CN([C@H]2CCC(=O)NC2=O)C4=O)CO3)ccc1[C@H]1c2ccc(O)cc2CC[C@H]1c1ccccc1` (stereo partly drawn) [Compound A54, (3S)-3-(1′-((8-(4-((1R,2R)-6-hydroxy-2-phenyl-1,2,3,4-tetrahydronaphthalen-1-yl)-3-methoxyphenyl)-1-oxa-8-azaspiro[4.5]decan-3-yl)methyl)-6-oxo-6,8-dihydro-2H,7H-spiro[furo[2,3-e]isoindole-3,4′-piperidin]-7-yl)piperidine-2,6-dione], the DC50 at ER in T47D cells (16 hrs treatment) and on ER in MCF-7 cells (16 hrs treatment) was < 1 nM each time. In addition, the values for the Dmax at ER in T47D cells (setting [3]) and on ER in MCF-7 cells (setting [4]) were > 75% and 50 to 75%, respectively. In addition, the IC50 at CRBN/DDB1 was < 50 nM; on ERα_LBD (GST), < 10 nM.
Turning to `O=C1CC[C@H](N2Cc3c(ccc4c3OCC43CCN(CC4CCC5(CC4)CN(c4ncc([C@@H]6c7ccc(O)cc7CC[C@@H]6c6ccccc6)cn4)C5)CC3)C2=O)C(=O)N1` [Compound A154, (S)-3-(1′-((2-(5-((1S,2S)-6-hydroxy-2-phenyl-1,2,3,4-tetrahydronaphthalen-1-yl)pyrimidin-2-yl)-2-azaspiro[3.5]nonan-7-yl)methyl)-6-oxo-6,8-dihydro-2H,7H-spiro[furo[2,3-e]isoindole-3,4′-piperidin]-7-yl)piperidine-2,6-dione], the DC50 on ER in T47D cells (16 hrs treatment) and at ER in MCF-7 cells (16 hrs treatment) was < 1 nM each time. Further, the Dmax at ER in T47D cells (setting [3]) is > 75%; at ER in MCF-7 cells (setting [4]), 50 to 75%. Besides, the IC50 on CRBN/DDB1 is < 50 nM; at ERα_LBD (GST), < 10 nM.
Take `O=C1CC[C@H](N2Cc3c(ccc4c3OCC43CCN(CC4CCC5(CC4)CN(c4ccc([C@@H]6c7ccc(O)cc7CC[C@@H]6c6ccccc6)cc4F)C5)CC3)C2=O)C(=O)N1` [Compound A161, (S)-3-(1′-((2-(2-fluoro-4-((1R, 2S)-6-hydroxy-2-phenyl-1,2,3,4-tetrahydronaphthalen-1-yl)phenyl)-2-azaspiro[3.5]nonan-7-yl)methyl)-6-oxo-6,8-dihydro-2H,7H-spiro[furo[2,3-e]isoindole-3,4′-piperidin]-7-yl)piperidine-2,6-dione]: the IC50 at CRBN/DDB1 was < 50 nM; on ERα_LBD (GST), < 10 nM. Besides, at ER in MCF-7 cells (setting [4]), the Dmax lay within 50 to 75%. In addition, the DC50 at ER in MCF-7 cells (16 hrs treatment) was < 1 nM.
Turning to `COc1cc(N2CCC(CN3CCN4c5cc6c(cc5OC[C@@H]4C3)C(=O)N([C@H]3CCC(=O)NC3=O)C6)CC2)c(F)cc1[C@@H]1c2ccc(O)cc2CC[C@@H]1c1ccccc1` [Compound A91, (S)-3-((S)-3-((1-(2-fluoro-4-((1S,2S)-6-hydroxy-2-phenyl-1,2,3,4-tetrahydronaphthalen-1-yl)-5-methoxyphenyl)piperidin-4-yl)methyl)-8-oxo-3,4,4a,5-tetrahydro-1H-pyrazino[1′,2′: 4,5][1,4]oxazino[2,3-f]isoindol-9 (2H,8H,10H)-yl)piperidine-2,6-dione], the DC50 at ER in T47D cells (16 hrs treatment) and at ER in MCF-7 cells (16 hrs treatment) was < 1 nM in each case. Besides, the Dmax on ER in T47D cells (setting [1]) and at ER in MCF-7 cells (setting [2]) was > 75% in each case. On ERα_LBD (GST), the IC50 is < 10 nM.
Take `O=C1CC[C@H](N2Cc3c(ccc4c3OCC43CCN(CC4CCC5(CC4)CN(c4ccc([C@@H]6c7ccc(O)cc7CC[C@@H]6c6ccccc6)cn4)C5)CC3)C2=O)C(=O)N1` [Compound A131, (S)-3-(1′-((2-(5-((1S,2S)-6-hydroxy-2-phenyl-1,2,3,4-tetrahydronaphthalen-1-yl)pyridin-2-yl)-2-azaspiro[3.5]nonan-7-yl)methyl)-6-oxo-6,8-dihydro-2H,7H-spiro[furo[2,3-e]isoindole-3,4′-piperidin]-7-yl)piperidine-2,6-dione]: the IC50 at CRBN/DDB1 was < 50 nM; on ERα_LBD (GST), < 10 nM. The Dmax at ER in MCF-7 cells (setting [4]) was > 75%. Also, at ER in MCF-7 cells (16 hrs treatment), the DC50 was < 1 nM.

For the origin of these results see patent US20260028354A1, “TETRAHYDRONAPHTHALENE DERIVATIVES AS ESTROGEN RECEPTOR DEGRADERS” (REGENT OF THE UNIVERSITY OF MICHIGAN, priority 2022, published 2026).
